Target: BACE 1 (Homo sapiens (Human), UniProt P56817)
Assay: ECL assay: homogeneous end point electrochemiluminescence assay of beta-secretase inhibition with biotinylated BACE substrate
Type: biochemical
Conditions: soluble human BACE 1, pH 6.5, rt
Description: Enzyme inhibition is determined as follows.
ECL Assay: A homogeneous end point electrochemiluminescence (ECL) assay is performed using a biotinylated BACE substrate. The Km of the substrate is approximated at 50 μM. A typical reaction contains approximately 0.6 nM enzyme, 0.25 μM of the substrate, and buffer (50 mM Pipes, pH 6.5, 0.1 mg/ml BSA, 0.2% CHAPS, 15 mM EDTA and 1 mM deferoxamine) in a total reaction volume of 100 μl. The reaction proceeds for 1-2 hrs and is then stopped by the addition of 150 μL of a quench cocktail solution (25 μl M Tris-HCl, pH 8.0, 50 μl INC buffer (2% BSA, 0.2% Tween-20 and 0.05% sodium azide diluted in Phosphate buffered saline (PBS) plus 75 μL PBS), containing Streptavidin coated magnetic beads and ruthenylated antibody which specifically recognizes the C-terminal residue of the product. The samples are subjected to M-384 (Igen Inc., Gaithersburg, Md.) analysis. Under these conditions, less than 10% of substrate is processed by BACE 1. The enzyme used in these studies is soluble (transmembrane domain and cytoplasmic extension excluded) human protein produced in a baculovirus expression system. To measure the inhibitory potency for compounds, 10 concentrations of inhibitors are prepared starting from 200 μM with three fold series dilution. Solutions of the inhibitor in DMSO are included in the reaction mixture (final DMSO concentration is 10%). […]

BACE 1, sequence (P56817 46-457): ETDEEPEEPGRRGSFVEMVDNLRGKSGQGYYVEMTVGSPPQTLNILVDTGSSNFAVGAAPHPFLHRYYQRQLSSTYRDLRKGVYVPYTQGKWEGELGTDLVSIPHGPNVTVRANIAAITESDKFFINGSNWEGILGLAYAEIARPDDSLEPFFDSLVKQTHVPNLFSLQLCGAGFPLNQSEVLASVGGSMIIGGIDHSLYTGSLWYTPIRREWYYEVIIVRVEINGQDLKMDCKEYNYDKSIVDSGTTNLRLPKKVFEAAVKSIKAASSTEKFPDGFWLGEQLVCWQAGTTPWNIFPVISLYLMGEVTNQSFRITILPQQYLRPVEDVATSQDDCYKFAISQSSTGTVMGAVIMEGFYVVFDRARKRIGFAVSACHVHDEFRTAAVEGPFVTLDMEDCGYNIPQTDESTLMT

Cc1cccc(C2CC(c3ccccc3)CCN2C(=O)[C@@H]2CNC[C@]23CCCc2nc(Cl)ccc23)c1 (stereo partly drawn) [Example 100, [(3R,4S)-2′-chloro-7′,8′-dihydro-6′H-spiro [pyrrolidine-3,5′-quinolin]-4-yl][2-(3-methylphenyl)-4-phenylpiperidin-1-yl] methanone]
IC50: 450 nM

Source: patent US9505739B2, “Spiropyrrolidine beta-secretase inhibitors for the treatment of alzheimer's disease” (Merck Sharp & Dohme Corp., priority 2009, dated 2016)
